{"source": "patent US8497075B2", "about": "“Methods of identifying a modulator that inhibits the binding between Epstein-Barr virus induced receptor 2 and cholesterol derived ligands” (Novartis AG, priority 2008, dated 2013)", "key": {"hEBI2 [1]": {"molecular_target": "T1, hEBI2 (Homo sapiens, UniProt P32249)", "T1 sequence (P32249 whole entry)": "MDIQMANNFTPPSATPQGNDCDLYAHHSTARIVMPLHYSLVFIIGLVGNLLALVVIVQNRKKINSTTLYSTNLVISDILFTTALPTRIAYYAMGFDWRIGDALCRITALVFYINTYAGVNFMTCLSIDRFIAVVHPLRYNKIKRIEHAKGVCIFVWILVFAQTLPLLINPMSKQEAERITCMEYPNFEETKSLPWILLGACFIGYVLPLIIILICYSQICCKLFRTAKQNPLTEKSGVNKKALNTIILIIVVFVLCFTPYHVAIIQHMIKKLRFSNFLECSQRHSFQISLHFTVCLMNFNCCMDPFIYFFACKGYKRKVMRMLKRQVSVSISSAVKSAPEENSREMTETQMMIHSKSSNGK", "test": "saturation binding, KD determination", "design": "expressed in transfected cells; host or cells: CHO-K1 expressing apoaequorin (CHO-Aeq) with Gqi5; line E2", "experimental": "CHO cells stably expressing human EBI2 (E2) were grown in roller bottles (Corning #431191) to confluency, washed with phosphate buffered saline (PBS) once and frozen at −80° C. The frozen cell pellets were resuspended in ice-cold homogenization buffer (10 ml/gram, 20 mM Tris pH7.2) supplemented with a protease inhibitor cocktail (Complete™, Roche, #05 056 489 001-14302200). The cell suspension was then homogenized using a Dounce homogenizer (10 strokes) with a driller. After centrifugation at 110000×g for 45 minutes and removal of the supernatant, pellets were resuspended in sucrose buffer (50 mM Tris pH7.2, 250 mM sucrose, 10% glycerol) by vortexing. The suspension was again homogenize using a Dounce homogenizer (10 strokes) and spun at 100000×g for 45 minutes. The supernatant was discarded, the pellet resuspended in sucrose buffer, protein concentration determined, aliquoted and frozen at −80° C. These membrane preparations were used in binding as well as GTPgS assays.\nThese solutions were made in buffer containing 50 mM Tris; 100 mM NaCl; 5 mM MgCl2 and 0.1% Cyclodextrine.\n[…] was measured in presence of a constant 7a,25DHC (NVP-BYX998-NX-4) concentration of 10 uM final and the corresponding total binding was measured with buffer instead of NVP-BYX998-NX-4. […]"}, "RS11846 cells": {"system": "RS11846 cells", "test": "chemotaxis 96 transwell assay", "type": "cell-based", "experimental": "B cells (RS11846 or EBV-infected human B-cells) or murine bone marrow-derived dendritic cells were washed once with medium and resuspended at 1×10^6/ml. 100 μl of this suspension was added into the wells of the filter plate and gently placed into the receiver plate containing 150 μl of a given compound dilution. The final DMSO concentration was less then 0.1%. After migration for 3 hr at 37° C. in an incubator, the filter plate was carefully removed from the receiver plate and discarded. The migrated cells in the receiver plate were resuspended and transferred into round-bottom 96-well plate, centrifuged and resuspended in 100 μl PBS containing 2% FCS and 0.1% NaN3 (FACS buffer). The input cells (100 μl) were similarly processed. For the calculation of the specific migration, a fixed number of beads (10000; Invitrogen #PCB100)) in 20 μl FACS buffer was added and the suspension was analyzed by flow cytometry using a FACS instrument PAS™ (Partec). Cells were identified based on their forward scatter (FSC) and side scatter (SSC) pattern. Chemotaxis is expressed either as total cell number or as percent of input cells."}, "hEBI2 [2]": {"molecular_target": "T1, hEBI2", "test": "GTPγS assay on EBI2 membranes", "type": "biochemical", "design": "expressed in transfected cells; host or cells: CHO-K1 expressing apoaequorin (CHO-Aeq) with Gqi5; line E2", "experimental": "(§1) The cell suspension was then homogenized using a Dounce homogenizer (10 strokes) with a driller. After centrifugation at 110000×g for 45 minutes and removal of the supernatant, pellets were resuspended in sucrose buffer (50 mM Tris pH7.2, 250 mM sucrose, 10% glycerol) by vortexing. The suspension was again homogenize using a Dounce homogenizer (10 strokes) and spun at 100000×g for 45 minutes. The supernatant was discarded, the pellet resuspended in sucrose buffer, protein concentration determined, aliquoted and frozen at −80° C. These membrane preparations were used in binding as well as GTPgS assays.\nTen micrograms of EBI2 membranes are dissolved in 40 μl of buffer A (20 mM Hepes pH 7.4, 100 mM NaCl, 1.5 mM MgCl2, Saponin 10 μg/ml) supplemented with 10 μM GDP. After addition of […] scintilation proximity assay (SPA) beads (100 μg/well, Amersham, RPNQ0001) components are gently mixed and incubated at RT for 15 minutes. Twenty microliters of compound diluted in buffer A and 20 μl of GTPγ^35S (Perkin Elmer NEG030X) is added before incubation for one hour at RT. Plates are transferred and counted in a TopCount (Perkin Elmer NXT HTS™) and counts are analysed plotted and to determine half maximal concentrations of activation using standard software (Prism™, GraphPad Software Inc.)."}, "hEBI2 [3]": {"molecular_target": "T1, hEBI2", "test": "calcium fluorescence (FLIPR)", "type": "cell-based", "design": "expressed in transfected cells; host or cells: CHO-K1 expressing apoaequorin (CHO-Aeq) with Gqi5; line E2", "experimental": "If not stated otherwise compounds were dissolved at 10 mM in DMSO or ethanol (cholesterol, 25MDC). Serial dilutions were carried out in 90% DMSO (FLIPR, GTPgS) or assay buffer (binding assay). For cell based assays final DMSO concentrations is kept below 1%.\nIf not stated otherwise, the same Chinese hamster ovary (CHO) cell line called E2 which was used for the ligand identification was used in these experiments. This cell line is expressing (1) the recombinant human EBI2 receptor, (2) the promiscuous Gqi5 protein as well as (3) apo-aequorin.\nCells were seeded in black/clear bottom, poly-D-Lysine coated 384-well plates at a cell density of 10,000 cells/25 μL/well, using culture medium. Cells were cultured for 24 hours at 37° C./5% CO2. Culture medium was removed and for cell loading, 20 μl per well of loading buffer (Calcium-4 no wash dye) were distributed into the wells and the plates were incubated for 60 min at 37° C. in 5% CO2. With the FLIPR pipettor, 10 μl of the different compounds were added to the cells and the subsequent fluorescent changes monitored for 3 minutes. Using the FLIPR software tool, 2 values of fluorescence calcium responses were exported: Fmax, the fluorescence at the peak and Fbasal corresponding to the value prior to compound injection. From these two values, the calcium response is normalized with respect to the calcium baseline values using dF/F=(Fmax−Fbasal)/Fbasal. The maximum dF/F is called Emax."}, "hEBI2 [4]": {"molecular_target": "T1, hEBI2", "test": "[3H] 7a,25DHC radio-ligand binding assay (SPA), IC50 determination", "design": "expressed in transfected cells; host or cells: CHO-K1 expressing apoaequorin (CHO-Aeq) with Gqi5; line E2", "experimental": "as §1\nLyophilized wheat germ agglutinin scintilation proximity assay (SPA) beads (RPNQ0001) were purchased from GE Healthcare (Buckinghamshire, UK). One vial (500 mg) is reconstituted by adding 5 mL of distilled water to give a final concentration of 100 mg/mL. Reconstituted SPA beads must be stored at 4° C., but must not be frozen. [3H]-7a,25-OHC, was synthesized by reduction of the 7-keto, 25DHC in the presence of 3H-L-selectride.\nThe SPA assay was performed in a final volume of 50 μl per well in a 384-well polystyrene Opti plate. The components were added into the wells as follows: • 10 μl tested compounds in 50 mM Tris; 100 mM NaCl; 5 mM MgCl2 and 0.1% Cyclodextrine.\nTotal binding was determined by the addition of 10 μl of 50 mM Tris; 100 mM NaCl; 5 mM MgCl2 and 0.1% Cyclodextrine and non-specific binding was determined by the addition of 10 μl NVP-BYX998-NX-4 (final concentration of 10 μM). • 20 μL of 10 nM final [3H]-BYX998 in assay buffer (50 mM Tris-HCl, 100 mM NaCl, 5 mM MgCl2 and 0.1% Cyclodextrine). • 20 μL of a mixed bead and membrane suspension in assay buffer, in order to get a final concentration of 20 μg membranes/well and 200 μg beads/well.\nThe plates were sealed and shaken at room temperature for 10 minutes then allowed to stand at room temperature for at least 12 hours. The plates were counted using a Perkin Elmer TopCount reader, each well being counted for 1 minute.\nEach IC50 determination was performed with 11 concentrations.\nA standard data reduction algorithm was used to calculate the percentage of specific binding in the presence of test compound as follows: ((B−NSB)/(Total−NSB))·100, where B=Binding in the presence of test compound (in cpm) NSB=Non-specific binding in the presence of excess inhibitor (in cpm) Total=Binding in the absence of test compound (in cpm) Curve fitting of the normalized concentration response curves using a four parameter logistic fit is then performed using XLfit (v.2 or v.4, IDBS, Guildford, UK). The equation used is XLfit equation no. […] By default, min is fixed at 0, whereas max is not fixed."}}, "note": "pEC50, pIC50, pKd: −log10 of the molar value.", "data": [{"compound": "C[C@H](CCCC(C)(C)O)[C@H]1CC[C@H]2[C@@H]3[C@@H](O)C=C4C[C@@H](O)CC[C@]4(C)[C@H]3CC[C@]12C", "note": "[[^3H]-7b,25DHC]", "values": [{"measurement": "specific binding to EBI2 membranes", "setting": "hEBI2 [1]; data not shown", "value": "not able to detect specific binding"}]}, {"compound": "pertussis toxin [reference compound]", "values": [{"measurement": "inhibition of 7a,25DHC-mediated chemotaxis of RS11846 cells", "setting": "RS11846 cells", "value": "blocked"}]}, {"compound": "C[C@H](CCCC(C)(C)O)[C@H]1CC[C@H]2[C@@H]3[C@H](O)C=C4C[C@@H](O)CC[C@]4(C)[C@H]3CC[C@]12C", "note": "[[^3H]-7a,25DHC]", "values": [{"measurement": "pKd", "setting": "hEBI2 [1]", "value": 7.60}]}, {"compound": "C[C@H](CCCC(C)(C)O)[C@H]1CC[C@H]2[C@@H]3CC=C4C[C@@H](O)CC[C@]4(C)[C@H]3CC[C@]12C", "note": "[25DHC, 25-hydroxycholesterol]", "values": [{"measurement": "pEC50", "setting": "hEBI2 [2]", "value": 6.14}, {"measurement": "pEC50", "setting": "hEBI2 [3]", "value": 5.52}, {"measurement": "pIC50", "setting": "hEBI2 [4]", "value": "< 5.00"}]}, {"compound": "CC(CO)CCC[C@@H](C)[C@H]1CC[C@H]2[C@@H]3[C@@H](O)C=C4C[C@@H](O)CC[C@]4(C)[C@H]3CC[C@]12C", "note": "(stereo partly drawn) [7b,27DHC, cholest-5-ene-3b,7b,27-triol]", "values": [{"measurement": "pEC50", "setting": "hEBI2 [2]; n = 3-4, read-out: GTPgS EC50", "value": 6.90}, {"measurement": "pEC50", "setting": "hEBI2 [3]; n = 3-4, read-out: FLIPR EC50", "value": 6.51}, {"measurement": "pIC50", "setting": "hEBI2 [4]", "value": "< 5.00"}]}]}
